What was measured:
[1] = test system: MPM PDOTS; test: PDOTS live/dead quantification ex vivo; format: cell-based
Experimental: Patient-derived organotypic tumor spheroids (PDOTS). […] Briefly, fresh tumor specimens were minced in a 15 mL falcon tube in prewarmed to 37° C. full media (DMEM from Thermo Fisher Scientific+10% FBS)+100 U/mL collagenase type IV (Life Technologies) and 50 μg/mL dNase I (Roche) for approximately 20 minutes using sterile scissors and pipetting. Dissociated material was strained over 100-μm filter and 40-μm filters to generate S1 (>100 μm), S2 (40-100 μm), and S3 (<40 μm) spheroid fractions, which were subsequently maintained in ultralow-attachment (ULA) tissue culture plates (Corning). […] S2 fractions were used for ex vivo culture by resuspending them in type I rat tail collagen (Corning) at a concentration of 2.8 mg/mL prior to loading into the center gel region of the 3-D microfluidic culture device (AIM Biotech) and incubation for 40 minutes at 37° C. in humidity chambers to allow for polymerization. […]
PDOTS immunofluorescence and live/dead quantification. […] Following incubation with the dyes (20 minutes at room temperature in the dark for AO/PI or 45 minutes for Hoechst 33342/PI), images were captured using 4× objective of a Nikon Eclipse 80i fluorescence microscope equipped with automated motorized stage (Proscan), Z-stack (Prior), and Zyla 5.5 sCMOS camera (Andor). […] Live and dead cell quantitation was performed by measuring total cell area of each dye.

[2] = test system: MPM cell lines; test: CellTiter-Glo viability in MPM cell lines; format: cell-based, human; details: cultured in vitro
Experimental: (§1) CellTiter-Glo luminescent cell viability assay. Cell viability was assessed using the CellTiter-Glo Luminescent Cell Viability assay (Promega, G7571) according to manufacturer's instructions. […] All conditions were tested in triplicate and plates were read on a Tecan Infinite Mplex Microplate Reader.

[3] = test system: T-cells; test: Immune cell toxicity assays, T-cells; format: cell-based, human
Experimental: Immune Cell Toxicity Assays. […] Following treatment, samples were stained with anti-CD45, anti-CD3, anti-CD4, anti-CD8, and anti-CD56 antibodies (Table 1), as well as Zombie Green live/dead (Biolegend 423111) and analyzed by flow cytometry as described above. Data were analyzed using FlowJo software version 10.5.3. As an orthogonal measure of viability, CellTiter-Glo was performed on primary T-cells and NK cells.
as §1

[4] = test system: NK cells; test: Autophagy staining (CYTO-ID); format: cell-based, human; details: NK cells following ADU-S100 treatment
Experimental: Autophagy Staining. Autophagy was assessed by vacuole staining to identify autophagolysosomes using the CYTO-ID Autophagy detection kit 2.0 (Enzo ENZ-51031-0050) according to manufacturer's instructions. Briefly, 5×10^5 isolated primary NK cells or TILs were incubated in T-cell growth media (TCGM) with 500 U/mL IL-2, which was refreshed every time the media was changed to ensure proper growth and selection. CLQ from the kit (Enzo 51005-CLQ) was used starting at the recommended initial dose of 10 μM compared with DMSO control. […] The media was collected, and flow cytometry was performed after staining following manufacturer's instructions with CYTO-ID Green Detection Reagent 2.

[5] = test system: granzyme B; test: Granzyme B ELISA, NK / MPM co-culture; format: cell-based, human; details: only in co-culture with MPM cells expressing STING
Experimental: Cytokine analysis. CXCL10 ELISA (R&D Systems DIP100) and granzyme B ELISA (R&D systems DY008) were performed according to manufacturer's instructions on conditioned media collected from cell culture. Cytokine analysis of conditioned media after 3 days of explant (S1) culture (FIG. 9B) utilized the MSD U-PLEX Viral Combo 1 assay (Hu: K15343K-2), which was performed according to manufacturer's instructions.

[6] = test system: MPM cell lines; test: NK cell killing assay; format: cell-based, human; details: NK co-culture, only with MPM cells expressing STING
Experimental: NK cell killing assay. Target cells (MPM cell lines) were detached via trypsinization, labelled with CellTrace Violet (CTV, LifeTechnologies) and then seeded in a 96-well plate at a cell density of 25,000 cells per well. […] After 6 hours of co-culture, the cells were harvested and incubated with an antibody for the apoptosis marker Annexin V (PE) and the live/dead stain 7-AAD (Biolegend). Cells were analyzed on a BD LSRFortessa with FACSDiva software (BD Biosciences). Data were analyzed using FlowJo software version 10.5.3. The apoptotic cells were evaluated by gating on the CTV+ population and represented as percentage live or dead (late apoptotic) cells. Apoptotic cell analysis was conducted using NK cells extracted from as many as 4 different healthy donors per target MPM cell line to incorporate baseline donor variability.

[7] = test system: H226 MPM cells; test: NK cell migration assay towards H226 spheroids; format: cell-based, human
Experimental: NK cell infiltration assay. Immune cell infiltration was assessed as previously described (Kitajima et al., Cancer Discov. 9:34-45 (2019); Mahadevan et al., Cancer Discov. 11:1952-1969 (2021)). Briefly, mesothelioma cancer cell spheroids (H2591, H2461, H226) were generated by seeding 5×10^5 cells in suspension in a ULA dish for 24 hours. […] Samples were then pelleted and resuspended in type I rat tail collagen (Corning) at a concentration of 2.5 mg/mL following the addition of 10×PBS with phenol red and pH adjustment using NaOH. pH 7.0-7.5 was confirmed using PANPEHA Whatman paper (Sigma-Aldrich). Cells and collagen were kept on ice to prevent polymerization. The spheroid-collagen suspension was then injected into the central gel region of the 3D DAX-1 microfluidic cell culture chip (AIM Biotech). Microfluidic devices were utilized as previously described (Aref et al., Lab Chip 18:3129-3143 (2018)), with a central region containing the cell-collagen mixture in a 3D microenvironment (3×10^4 cells H2591 and H2461, 2× 10^4 cells H226 in 10 μL), flanked by 2 media channels. After injection, collagen hydrogels containing cells were incubated for 40 minutes at 37° C. in humidity chambers, then hydrated with culture media, with labeled primary NK cells (ET ratio 2:1) added to one of the side channels. Primary NK cells were labeled with Cell Tracker Red (Thermo Fisher Scientific) following manufacturer's instructions. After 96 hours of incubation, viability staining of cancer cell spheroids and infiltrated immune cells was performed (20-minute incubation with 1 μg/mL solution of Propidium Iodide; Thermo Fisher Scientific). For the experiment with the CXCR3 neutralizing antibody (R&D MAB160), NK cells were pre-treated for 30 minutes prior to loading.
(§2) For quantification, images were captured on a Nikon Eclipse 80i fluorescence microscope equipped with Z-stack (Prior) and CoolSNAP CCD camera (Roper Scientific). Image capture and analysis was performed using NIS-Elements AR software package. Whole device images were achieved by stitching in multiple captures. Quantification of immune cell infiltration into the 3D tumor microenvironment was performed by measuring the total cell area of cell tracker dye in the entire gel region. For the experiment with the CXCR3 neutralizing antibody (R&D MAB160; FIG. 6B), staining was quantified in a square region in the center of the channel to focus on effects of CXCR3 ligands released by tumor cells. Percent dead cell quantification was performed as in PDOTS as described above.
Immune cell migration assays were performed as previously described (Kitajima et al., Cancer Discov. 9:34-45 (2019)). […]

[8] = test system: H2591 MPM cells; test: NK cell migration assay towards H2591 spheroids; format: cell-based, human
Experimental: NK cell infiltration assay. Immune cell infiltration was assessed as previously described (Kitajima et al., Cancer Discov. 9:34-45 (2019); Mahadevan et al., Cancer Discov. 11:1952-1969 (2021)). Briefly, mesothelioma cancer cell spheroids (H2591, H2461, H226) were generated by seeding 5×10^5 cells in suspension in a ULA dish for 24 hours. […] Samples were then pelleted and resuspended in type I rat tail collagen (Corning) at a concentration of 2.5 mg/mL following the addition of 10×PBS with phenol red and pH adjustment using NaOH. pH 7.0-7.5 was confirmed using PANPEHA Whatman paper (Sigma-Aldrich). Cells and collagen were kept on ice to prevent polymerization. […]
as §2, with “Image capture and analysis was performed using NIS-Elements AR software package. Whole device images were achieved by stitching in multiple captures.” left out, “above. […]” for “above.”

For `Nc1ncnc2c1ncn2[C@@H]1O[C@@H]2COP(=O)([S-])O[C@@H]3[C@H](O)[C@@H](COP([O-])(=S)O[C@H]2[C@H]1O)O[C@H]3n1cnc2c(N)ncnc21.[Na+].[Na+]` (some centres unmarked) [ADU-S100], the “specimens approximating clinical criteria for response with >30% decrease in cell area, p<0.05” value ([1]; 35 MPM patient specimens ex vivo) was 7 specimens, the “primary NK cell response in MPM PDOTS” value ([1]; combined treatment with primary NK cells, cells from 2 out of 3 donors) was “significantly enhanced” and the “cytotoxicity in MPM cell lines” value [2] was “did not cause cytotoxicity”. For the same compound, the “cytotoxicity to T-cells by flow cytometry” value ([3]; MPM tumor explants, increased from 24 to 72 hours) was “cytotoxic”, the “cytotoxicity in T-cells purified from peripheral blood” value ([3]; with or without BCMA CAR) was “dose-dependent cytotoxicity” and the autophagic flux [4] was “elevated”. The “granzyme release by NK cells” value [5] was “enhanced”, the “apoptosis of tumor cells” value [6] was “enhanced” and the “CAR-NK CXCR+ cell migration” value [7] was “increased”. For the same compound, the “CAR-NK control cell migration” value [7] was “did not affect”, the “migration of cNK cells” value [7] was “increased migration” and the “migration of cNK overexpressing CXCR3” value [7] was “decreased migration”. The “migration of cNK cells” value [8] was “increased migration” and the “migration of cNK overexpressing CXCR3” value [8] was “decreased migration”.

From patent US20260183396A1, “CXCR3 OVEREXPRESSION IN CAR-NK CELLS PRIMES MIGRATION/HOMING INTO THE TUMOR MICROENVIRONMENT” (DANA-FARBER CANCER INSTITUTE, INC., priority 2022, published 2026)
